Assay [1] is described as follows: Inhibition of PKD1 (unknown origin).
Assay [2] in a line: Inhibition of PKD1 (unknown origin) assessed as inhibition constant.

The IC50 is the midpoint of a concentration-inhibition curve. The low end stands for inhibition by little substance, the high end for a need for much substance. The Ki is the dissociation constant of the complex between target and ligand, obtained from inhibition or displacement. On to `CN1C(=O)[C@](O)(C#Cc2cccc(-n3nc(C(N)=O)c4cccnc43)c2)[C@H]2C[C@H]21` [1-(3-(((1R,4R,5S)-4-hydroxy-2-methyl-3-oxo-2-azabicyclo[3.1.0]hexan-4-yl)ethynyl)phenyl)-1H-pyrazolo[3,4-b]pyridine-3-carboxamide], for which the midpoint of inhibition in assay [1], the IC50, lay at 210 nM. Moreover, the Ki in assay [2] is 64 nM.
